Consider two molecules from article PMC10303271, “Synthesis and Receptor Binding Studies of α5 GABAAR Selective Novel Imidazodiazepines Targeted for Psychiatric and Cognitive Disorders” (Molecules, 2023).

One data set concerns the target T1, AT2 (Homo sapiens, UniProt P50052).
T1 construct: purchased NIMH Psychoactive Drug Screening Program (PDSP)
The data set is described as follows: PDSP primary binding AT2. The following applies: primary binding, 10,000 nM; last figure of the line = mean of the 4 before it. On the procedure:
(§1) To determine if any off-target receptor-binding effects are present, all the novel ligands were sent to the National Institute of Mental Health (NIMH), Psychoactive Drug Screening Program (PDSP). The ligands were screened over a panel of 47 receptors, ion channels, and transporters to determine any other possible interactions with […]. The hERG-binding was also determined. […] No binding of the test compounds to calcium channels was observed. […] It is necessary to screen the compounds for hERG-binding during the early process of drug discovery. The unintentional binding of many drugs to hERG can cause blockade of hERG K+ channels in the heart, which can cause many side effects including cardiac arrhythmias and sudden death. […] All of the α5 imidazodiazepines were tested for hERG-binding.
The NIMH PDSP assay protocol book [https://kidbdev.med.unc.edu/databases/PDSP%20Protocols%20II%202013-03-28.pdf accessed on 23 April 2023]. describes the protocols for primary and secondary radio-ligand binding assays. […]
The binding of a ligand to a receptor, ion channel, or transporter was determined in the […] of 10 µM of the appropriate reference compound. Nonspecific binding was also determined in the absence and presence of 10 µM of the appropriate reference compound. […] Radioactivity was then counted on a Microbeta counter. […]

The target in a further data set is T2, 5-HT2C (Homo sapiens, UniProt P28335).
T2 construct: purchased NIMH Psychoactive Drug Screening Program (PDSP)
T2 sequence (P28335 33-458): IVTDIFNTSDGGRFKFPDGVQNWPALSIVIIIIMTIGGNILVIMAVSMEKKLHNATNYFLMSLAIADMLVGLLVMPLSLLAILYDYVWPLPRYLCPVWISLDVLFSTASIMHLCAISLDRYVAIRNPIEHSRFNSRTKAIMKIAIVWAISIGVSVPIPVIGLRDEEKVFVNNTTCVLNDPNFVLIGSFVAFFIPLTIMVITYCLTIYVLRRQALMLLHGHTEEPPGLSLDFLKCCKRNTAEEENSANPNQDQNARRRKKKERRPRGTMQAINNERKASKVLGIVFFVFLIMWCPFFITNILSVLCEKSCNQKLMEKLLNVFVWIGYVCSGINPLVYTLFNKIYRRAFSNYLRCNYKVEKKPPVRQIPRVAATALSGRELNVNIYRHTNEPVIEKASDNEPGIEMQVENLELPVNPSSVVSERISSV
The data set is described as follows: PDSP primary binding 5-HT2C. The settings on record: 1.5 h; primary binding, 10,000 nM; last figure of the line = mean of the 4 before it; read-out: 5-HT2C, PDSP raw data, mean. The method, then: as §1
(§2) The NIMH PDSP assay protocol book [https://kidbdev.med.unc.edu/databases/PDSP%20Protocols%20II%202013-03-28.pdf accessed on 23 April 2023]. describes the protocols for primary and secondary radio-ligand binding assays. These assays were carried out in a final volume of 125 µL per well in the appropriate binding buffer.
(§3) The binding of a ligand to a receptor, ion channel, or transporter was determined in the […] of 10 µM of the appropriate reference compound. […] Plates were incubated in the dark for 90 min at rt, and the reactions were stopped by vacuum filtration onto 0.3% polyethyleneimine (PEI) soaked 96-well filter mats using a 96-well Filtermateharvester. This was followed by three washes with cold PBS buffer. Radioactivity was then counted on a Microbeta counter. Nonlinear regression was used to analyze the data with N = 6 replicates.

The target of the next data set is T3, DAT (Homo sapiens, UniProt Q01959).
T3 construct: purchased NIMH Psychoactive Drug Screening Program (PDSP)
T3 sequence (Q01959 whole entry): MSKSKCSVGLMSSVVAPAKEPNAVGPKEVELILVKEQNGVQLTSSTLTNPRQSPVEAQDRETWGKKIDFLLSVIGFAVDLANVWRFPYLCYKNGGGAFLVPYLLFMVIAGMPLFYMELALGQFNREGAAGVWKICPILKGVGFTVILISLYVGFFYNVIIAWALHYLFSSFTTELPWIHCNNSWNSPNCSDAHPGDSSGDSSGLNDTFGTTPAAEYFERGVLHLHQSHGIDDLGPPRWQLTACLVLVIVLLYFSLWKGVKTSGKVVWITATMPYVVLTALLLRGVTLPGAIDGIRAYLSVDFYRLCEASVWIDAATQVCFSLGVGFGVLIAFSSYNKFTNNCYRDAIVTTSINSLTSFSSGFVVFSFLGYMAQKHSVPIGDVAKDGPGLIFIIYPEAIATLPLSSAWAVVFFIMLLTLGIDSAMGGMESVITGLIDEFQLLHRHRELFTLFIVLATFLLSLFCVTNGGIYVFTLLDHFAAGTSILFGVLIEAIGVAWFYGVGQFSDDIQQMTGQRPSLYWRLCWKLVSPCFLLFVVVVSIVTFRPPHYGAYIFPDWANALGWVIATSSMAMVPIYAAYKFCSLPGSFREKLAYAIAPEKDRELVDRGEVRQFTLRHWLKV
The data set is described as follows: PDSP primary binding DAT. The settings on record: 1.5 h, primary binding, 10,000 nM; last figure of the line = mean of the 4 before it; some tables list DAT twice; read-out: DAT, PDSP raw data, mean. The method, then: as §1, §2, §3

Another data set concerns the target T4, M3D (Homo sapiens, UniProt P20309, A239G/Y149C).
T4 construct: purchased NIMH Psychoactive Drug Screening Program (PDSP)
Description: PDSP primary binding M3D. The following applies: primary binding, 10,000 nM; last figure of the line = mean of the 4 before it; read-out: M3D, PDSP raw data, mean. The method, then: as §1, §2, §3

A further data set concerns the target T5, OT (Homo sapiens, UniProt P30559).
T5 construct: purchased NIMH Psychoactive Drug Screening Program (PDSP)
T5 sequence (P30559 1-389): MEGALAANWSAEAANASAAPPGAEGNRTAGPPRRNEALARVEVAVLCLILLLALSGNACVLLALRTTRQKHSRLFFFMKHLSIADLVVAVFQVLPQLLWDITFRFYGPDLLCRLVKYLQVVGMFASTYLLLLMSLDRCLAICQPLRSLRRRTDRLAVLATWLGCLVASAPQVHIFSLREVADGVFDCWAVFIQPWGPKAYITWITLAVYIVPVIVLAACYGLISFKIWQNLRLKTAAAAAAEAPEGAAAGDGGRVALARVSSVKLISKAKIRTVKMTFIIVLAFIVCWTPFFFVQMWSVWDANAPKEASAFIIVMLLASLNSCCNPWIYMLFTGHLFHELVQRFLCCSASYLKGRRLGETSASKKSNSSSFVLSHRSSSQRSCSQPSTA
The data set is described as follows: PDSP primary binding OT (Oxytocin). The following applies: primary binding, 10,000 nM; last figure of the line = mean of the 4 before it; some tables list it twice; read-out: OT (also Oxytocin), PDSP raw data, mean. On the procedure: as §1, §2, §3

For another data set, the target named is T6, NOP (Homo sapiens, UniProt P41146).
T6 construct: purchased NIMH Psychoactive Drug Screening Program (PDSP)
T6 sequence (P41146 whole entry): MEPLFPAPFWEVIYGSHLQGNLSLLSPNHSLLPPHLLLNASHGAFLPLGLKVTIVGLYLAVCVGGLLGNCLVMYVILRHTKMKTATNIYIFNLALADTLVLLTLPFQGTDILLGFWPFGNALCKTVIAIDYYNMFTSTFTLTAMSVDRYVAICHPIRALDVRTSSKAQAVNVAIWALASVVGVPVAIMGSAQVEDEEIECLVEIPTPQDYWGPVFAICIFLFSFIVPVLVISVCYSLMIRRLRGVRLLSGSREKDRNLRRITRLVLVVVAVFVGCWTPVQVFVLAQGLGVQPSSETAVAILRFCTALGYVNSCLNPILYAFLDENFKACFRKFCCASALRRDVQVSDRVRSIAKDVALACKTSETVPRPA
Description: PDSP primary binding NOP. The following applies: primary binding, 10,000 nM; last figure of the line = mean of the 4 before it. On the procedure:
as §1, §2, §3

A further data set deals with T7, hERG K+ channel (Homo sapiens, UniProt Q12809).
T7 construct: purchased NIMH Psychoactive Drug Screening Program (PDSP)
T7 sequence (Q12809 whole entry): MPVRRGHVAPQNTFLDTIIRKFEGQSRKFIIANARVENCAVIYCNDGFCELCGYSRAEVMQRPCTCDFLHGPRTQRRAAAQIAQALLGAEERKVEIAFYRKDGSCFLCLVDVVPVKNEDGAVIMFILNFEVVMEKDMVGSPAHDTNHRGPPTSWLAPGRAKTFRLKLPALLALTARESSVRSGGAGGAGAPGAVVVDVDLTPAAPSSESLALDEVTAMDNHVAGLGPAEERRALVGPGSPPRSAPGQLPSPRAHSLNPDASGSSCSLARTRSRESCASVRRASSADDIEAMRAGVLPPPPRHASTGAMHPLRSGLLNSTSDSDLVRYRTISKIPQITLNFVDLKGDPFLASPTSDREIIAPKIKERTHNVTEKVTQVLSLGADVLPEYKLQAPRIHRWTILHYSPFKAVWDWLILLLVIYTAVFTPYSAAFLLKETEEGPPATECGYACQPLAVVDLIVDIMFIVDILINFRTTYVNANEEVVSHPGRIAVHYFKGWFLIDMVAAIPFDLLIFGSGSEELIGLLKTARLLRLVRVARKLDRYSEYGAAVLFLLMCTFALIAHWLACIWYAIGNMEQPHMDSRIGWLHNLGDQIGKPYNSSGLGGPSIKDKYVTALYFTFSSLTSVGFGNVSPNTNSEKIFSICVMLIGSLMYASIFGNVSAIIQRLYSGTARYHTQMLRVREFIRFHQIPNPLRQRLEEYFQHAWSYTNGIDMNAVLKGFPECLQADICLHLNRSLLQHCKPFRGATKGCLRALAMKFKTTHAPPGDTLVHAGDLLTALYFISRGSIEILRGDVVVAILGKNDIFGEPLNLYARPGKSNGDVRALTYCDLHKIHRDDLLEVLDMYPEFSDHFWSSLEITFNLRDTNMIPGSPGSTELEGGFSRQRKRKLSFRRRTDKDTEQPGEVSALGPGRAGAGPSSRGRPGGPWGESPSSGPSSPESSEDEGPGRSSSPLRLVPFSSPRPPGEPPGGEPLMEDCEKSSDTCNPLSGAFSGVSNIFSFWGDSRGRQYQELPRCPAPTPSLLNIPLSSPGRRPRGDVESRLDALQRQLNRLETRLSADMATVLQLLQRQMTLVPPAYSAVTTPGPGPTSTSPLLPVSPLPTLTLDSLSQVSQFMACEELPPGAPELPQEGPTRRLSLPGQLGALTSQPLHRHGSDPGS
Description: PDSP radioligand binding at hERG. The following applies: human; at 10,000 nM; N = 5; read-out: Binding Affinity at hERG % Inhibition (Primary Binding). In a few lines: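 Receptor binding measured by filtration after a 90 min dark incubation at room temperature. Filter mats were pretreated with 0.3% PEI and washed with cold PBS before counting, with 10 µM of a reference compound marking nonspecific binding.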

The target in another data set is T8, Alpha2Beta4 (Rattus norvegicus, UniProt P12389+P12392).
T8 construct: purchased NIMH Psychoactive Drug Screening Program (PDSP)
T8 sequence (P12389 28-511): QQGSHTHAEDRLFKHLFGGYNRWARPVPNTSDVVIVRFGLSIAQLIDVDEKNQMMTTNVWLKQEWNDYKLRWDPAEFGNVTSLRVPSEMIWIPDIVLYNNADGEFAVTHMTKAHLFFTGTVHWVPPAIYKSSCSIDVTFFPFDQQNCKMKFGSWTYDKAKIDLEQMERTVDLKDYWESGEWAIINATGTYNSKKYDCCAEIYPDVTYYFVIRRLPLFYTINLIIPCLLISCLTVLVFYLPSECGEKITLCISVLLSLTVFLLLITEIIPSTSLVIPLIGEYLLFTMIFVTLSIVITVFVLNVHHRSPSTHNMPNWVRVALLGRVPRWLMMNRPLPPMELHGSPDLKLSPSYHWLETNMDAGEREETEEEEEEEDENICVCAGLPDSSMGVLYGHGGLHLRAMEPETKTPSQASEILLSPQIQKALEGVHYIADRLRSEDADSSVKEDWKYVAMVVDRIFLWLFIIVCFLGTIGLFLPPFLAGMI
T8 sequence (P12392 21-495): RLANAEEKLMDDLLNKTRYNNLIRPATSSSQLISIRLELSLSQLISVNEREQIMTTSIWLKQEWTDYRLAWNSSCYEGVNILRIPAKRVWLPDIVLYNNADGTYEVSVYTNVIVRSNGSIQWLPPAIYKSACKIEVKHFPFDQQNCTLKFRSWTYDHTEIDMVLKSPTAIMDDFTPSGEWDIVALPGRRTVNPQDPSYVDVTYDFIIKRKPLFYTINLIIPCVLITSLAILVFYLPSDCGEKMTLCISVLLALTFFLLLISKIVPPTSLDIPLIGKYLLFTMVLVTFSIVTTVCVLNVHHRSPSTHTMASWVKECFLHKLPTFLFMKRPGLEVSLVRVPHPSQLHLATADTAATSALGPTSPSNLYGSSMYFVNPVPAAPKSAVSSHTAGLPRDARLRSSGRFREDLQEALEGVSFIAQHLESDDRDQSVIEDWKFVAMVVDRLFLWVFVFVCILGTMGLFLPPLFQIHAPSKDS
The data set is described as follows: PDSP primary binding Alpha2Beta4. The following applies: primary binding, 10,000 nM; last figure of the line = mean of the 4 before it; read-out: Alpha2Beta4, PDSP raw data, mean. The method, then: as §1, §2, §3

In the next data set the target is T9, SERT (Homo sapiens, UniProt P31645).
T9 construct: purchased NIMH Psychoactive Drug Screening Program (PDSP)
T9 sequence (P31645 whole entry): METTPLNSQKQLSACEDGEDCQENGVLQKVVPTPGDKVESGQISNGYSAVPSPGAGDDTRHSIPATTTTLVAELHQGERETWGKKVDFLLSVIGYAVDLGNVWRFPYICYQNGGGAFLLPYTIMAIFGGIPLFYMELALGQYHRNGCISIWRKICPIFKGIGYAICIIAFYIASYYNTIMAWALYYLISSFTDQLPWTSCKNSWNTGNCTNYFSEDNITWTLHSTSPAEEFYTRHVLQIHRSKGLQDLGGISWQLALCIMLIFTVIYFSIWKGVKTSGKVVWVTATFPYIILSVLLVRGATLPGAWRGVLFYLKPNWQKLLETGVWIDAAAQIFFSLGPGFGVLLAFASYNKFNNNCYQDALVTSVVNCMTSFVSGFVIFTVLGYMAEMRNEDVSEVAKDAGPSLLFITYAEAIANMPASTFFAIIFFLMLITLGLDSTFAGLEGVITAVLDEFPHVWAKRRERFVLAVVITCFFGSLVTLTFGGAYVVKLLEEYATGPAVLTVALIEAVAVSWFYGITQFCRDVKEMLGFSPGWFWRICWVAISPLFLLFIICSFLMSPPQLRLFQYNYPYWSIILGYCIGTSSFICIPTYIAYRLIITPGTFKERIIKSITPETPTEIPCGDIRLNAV
The data set is described as follows: PDSP primary binding SERT. The following applies: primary binding, 10,000 nM; last figure of the line = mean of the 4 before it; some tables list SERT twice; read-out: SERT, PDSP raw data, mean. The method, then: as §1, §2, §3

T1 sequence (P50052 whole entry): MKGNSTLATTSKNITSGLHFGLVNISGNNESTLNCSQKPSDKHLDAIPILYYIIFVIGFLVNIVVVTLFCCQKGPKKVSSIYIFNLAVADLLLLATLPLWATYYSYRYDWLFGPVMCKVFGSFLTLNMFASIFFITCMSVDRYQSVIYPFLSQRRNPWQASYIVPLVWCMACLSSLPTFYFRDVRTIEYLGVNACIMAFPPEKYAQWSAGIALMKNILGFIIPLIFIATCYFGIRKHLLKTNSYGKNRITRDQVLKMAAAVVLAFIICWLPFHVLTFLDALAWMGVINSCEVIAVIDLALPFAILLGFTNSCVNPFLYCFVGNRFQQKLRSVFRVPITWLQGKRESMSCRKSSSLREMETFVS
T4 sequence (P20309 whole entry Y149C/A239G): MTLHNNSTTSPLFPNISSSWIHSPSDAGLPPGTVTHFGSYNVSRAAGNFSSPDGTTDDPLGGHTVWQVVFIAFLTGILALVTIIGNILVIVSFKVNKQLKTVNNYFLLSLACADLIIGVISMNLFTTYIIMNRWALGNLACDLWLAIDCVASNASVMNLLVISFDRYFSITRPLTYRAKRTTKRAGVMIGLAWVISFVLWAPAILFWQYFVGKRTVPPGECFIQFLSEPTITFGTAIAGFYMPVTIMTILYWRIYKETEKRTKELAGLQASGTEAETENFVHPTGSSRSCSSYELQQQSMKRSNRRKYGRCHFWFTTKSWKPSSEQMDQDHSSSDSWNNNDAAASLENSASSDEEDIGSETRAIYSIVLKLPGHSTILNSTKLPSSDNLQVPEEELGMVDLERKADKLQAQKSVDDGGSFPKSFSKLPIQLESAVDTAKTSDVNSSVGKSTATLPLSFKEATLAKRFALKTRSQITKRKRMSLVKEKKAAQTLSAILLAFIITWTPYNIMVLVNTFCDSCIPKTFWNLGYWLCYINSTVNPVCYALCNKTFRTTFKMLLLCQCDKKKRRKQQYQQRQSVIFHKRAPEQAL

Consider `CC(C)c1noc(-c2ncn3c2[C@@H](C)N=C(c2ccccc2F)c2cc(Cl)ccc2-3)n1` [Compound 37, (R)-5-(8-Chloro-6-(2′-fluorophenyl)-4-methyl-4H-benzo[f]imidazo[1,5-a][1,4]diazepin-3-yl)-3-isopropyl-1,2,4-oxadiazole], for which the “AT2, PDSP raw data, mean” value on AT2 stood at 12.03%. For the same molecule, the inhibition at 10 µM on 5-HT2C is 17.5%; on DAT, 37.5%; at M3D, -23.4%; at OT, 10.5%; on Alpha2Beta4 it was -5.48%. Moreover, the “NOP, PDSP raw data, mean” value on NOP is recorded as -10.12%. The inhibition at 90 min, 10000 nM at hERG K+ channel was 4.21 ± 10.8%.
On to `C[C@H]1N=C(c2ccccc2F)c2cc(Cl)ccc2-n2cnc(-c3nc(C4CC4)no3)c21` [Compound 38, (R)-5-(8-Chloro-6-(2′-fluorophenyl)-4-methyl-4H-benzo[f]imidazo[1,5-a][1,4]diazepin-3-yl)-3-cyclopropyl-1,2,4-oxadiazole], for which the “AT2, PDSP raw data, mean” value at AT2 stood at 24.14%. In addition, the inhibition at 10 µM came out at 7.18% at 5-HT2C; 40% at DAT; 6.92% on M3D; 0.54% on Alpha2Beta4; 13.1% at SERT. Further, on NOP, the “NOP, PDSP raw data, mean” value is reported as -17%. Moreover, the inhibition at 90 min, 10000 nM on hERG K+ channel came to 1.86 ± 25.6%.
